# Assays:
# [1] = biological target: T1, Human μ-opioid (MOP) (Homo sapiens, UniProt P35372); test: Radioligand binding, human μ-opioid (MOP) membranes, FlashPlate, [3H]-Naloxone; conditions: compound at 10 μM, [3H]-Naloxone
# T1 construct: purchased Perkin Elmer Biosignal
# How it was run: (§1)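 Cloned human receptor membranes were coated onto FlashPlate wells and incubated with radioligand and compound (added from a 0.5 mM DMSO daughter plate) for 1 hour at room temperature in the dark. Scintillation counting gave percent inhibition, with DMSO defining total and reference ligand defining non-specific binding.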
# [2] = biological target: T2, Human Melanocortin (MC4) (Homo sapiens, UniProt P32245); test: Radioligand binding, human melanocortin MC4 membranes, FlashPlate, [125I]-NDP-αMSH; conditions: compound at 10 μM, [125I]-NDP-αMSH
# T2 construct: purchased Perkin Elmer Biosignal
# T2 sequence (P32245 whole entry): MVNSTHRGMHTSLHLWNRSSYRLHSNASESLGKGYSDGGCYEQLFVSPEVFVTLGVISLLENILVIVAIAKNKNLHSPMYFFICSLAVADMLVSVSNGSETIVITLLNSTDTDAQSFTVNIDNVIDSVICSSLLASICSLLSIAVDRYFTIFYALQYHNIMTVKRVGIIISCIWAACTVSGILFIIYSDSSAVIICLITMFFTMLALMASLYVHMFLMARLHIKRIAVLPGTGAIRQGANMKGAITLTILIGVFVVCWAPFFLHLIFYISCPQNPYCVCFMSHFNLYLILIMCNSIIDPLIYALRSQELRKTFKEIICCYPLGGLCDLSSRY
# How it was run: as §1
# [3] = biological target: T3, Mouse urotensin (mUR2) (Mus musculus, UniProt Q8VIH9); test: Radioligand binding, mouse urotensin mUR2 membranes, FlashPlate, [125I]-Urotensin II; conditions: compound at 10 μM, [125I]-Urotensin II
# T3 construct: purchased Perkin Elmer Biosignal
# T3 sequence (Q8VIH9 1-385): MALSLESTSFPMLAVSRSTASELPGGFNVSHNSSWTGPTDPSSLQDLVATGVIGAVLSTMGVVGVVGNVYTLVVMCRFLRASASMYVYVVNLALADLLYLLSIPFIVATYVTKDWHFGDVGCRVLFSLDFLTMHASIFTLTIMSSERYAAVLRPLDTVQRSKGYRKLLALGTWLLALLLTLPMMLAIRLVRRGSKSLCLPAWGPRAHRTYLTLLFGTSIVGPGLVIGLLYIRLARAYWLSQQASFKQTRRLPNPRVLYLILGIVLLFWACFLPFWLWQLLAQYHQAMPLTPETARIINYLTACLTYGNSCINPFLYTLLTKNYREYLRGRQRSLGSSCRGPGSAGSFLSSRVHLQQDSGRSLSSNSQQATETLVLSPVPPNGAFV
# How it was run: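 Cloned mouse urotensin (mUR2) receptor membranes from Perkin Elmer Biosignal were immobilized in FlashPlate microplates using a proprietary coating. Each well got 19.5 μl buffer, then 0.5 μl of DMSO, reference ligand, or compound. Adding 5 μl of [125I]-Urotensin II, diluted to 5× final concentration in binding buffer, started binding. Plates were sealed with TopSeal-A and incubated 1 hour at room temperature in the dark. Wells were counted for 30 seconds each on a TopCount after a 60-second delay, and percentage inhibition was calculated.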
# [4] = biological target: T4, Human neuropeptide Y (NPY-Y1) (Homo sapiens, UniProt P25929); test: Radioligand binding, human neuropeptide Y NPY-Y1 membranes, FlashPlate, [125I]-PYY; conditions: compound at 10 μM, [125I]-PYY
# T4 construct: purchased Perkin Elmer Biosignal
# T4 sequence (P25929 1-384): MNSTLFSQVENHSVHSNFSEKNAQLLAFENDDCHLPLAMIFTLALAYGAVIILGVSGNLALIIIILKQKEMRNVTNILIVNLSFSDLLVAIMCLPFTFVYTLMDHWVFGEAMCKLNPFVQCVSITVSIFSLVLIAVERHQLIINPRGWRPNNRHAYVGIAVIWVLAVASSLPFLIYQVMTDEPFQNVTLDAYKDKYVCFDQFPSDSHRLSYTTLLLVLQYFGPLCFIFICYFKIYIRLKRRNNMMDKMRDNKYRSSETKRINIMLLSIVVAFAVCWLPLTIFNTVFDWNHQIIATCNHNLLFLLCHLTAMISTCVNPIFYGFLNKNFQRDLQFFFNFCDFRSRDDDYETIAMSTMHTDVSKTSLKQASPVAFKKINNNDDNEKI
# How it was run: as §1
# [5] = biological target: T5, Human Melanocortin (MC3) (Homo sapiens, UniProt P41968); test: Radioligand binding, human melanocortin MC3 membranes, FlashPlate, [125I]-NDP-αMSH; conditions: compound at 10 μM, [125I]-NDP-αMSH
# T5 construct: purchased Perkin Elmer Biosignal
# T5 sequence (P41968 whole entry): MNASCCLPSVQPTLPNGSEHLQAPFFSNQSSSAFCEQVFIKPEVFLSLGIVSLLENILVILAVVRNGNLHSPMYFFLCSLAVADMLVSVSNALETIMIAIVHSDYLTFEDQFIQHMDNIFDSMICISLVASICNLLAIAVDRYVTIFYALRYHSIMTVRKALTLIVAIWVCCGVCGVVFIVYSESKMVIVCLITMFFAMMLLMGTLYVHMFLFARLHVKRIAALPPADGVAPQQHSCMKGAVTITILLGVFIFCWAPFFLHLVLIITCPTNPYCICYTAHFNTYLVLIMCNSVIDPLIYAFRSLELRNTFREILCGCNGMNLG
# How it was run: as §1
# [6] = biological target: T6, Human melanocortin (MC5) (Homo sapiens, UniProt P33032); test: Radioligand binding, human melanocortin MC5 membranes, FlashPlate, [125I]-NDP-αMSH; conditions: compound at 10 μM, [125I]-NDP-αMSH
# T6 construct: purchased Perkin Elmer Biosignal
# T6 sequence (P33032 whole entry): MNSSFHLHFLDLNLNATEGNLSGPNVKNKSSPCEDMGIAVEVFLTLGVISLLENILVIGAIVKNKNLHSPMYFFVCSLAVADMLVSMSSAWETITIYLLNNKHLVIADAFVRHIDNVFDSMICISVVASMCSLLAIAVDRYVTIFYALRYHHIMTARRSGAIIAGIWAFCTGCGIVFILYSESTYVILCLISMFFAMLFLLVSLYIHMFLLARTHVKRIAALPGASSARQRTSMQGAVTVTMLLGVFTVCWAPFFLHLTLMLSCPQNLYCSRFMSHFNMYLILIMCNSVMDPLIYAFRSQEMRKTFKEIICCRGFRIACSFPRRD
# How it was run: as §1
# [7] = biological target: T7, Human δ-opioid (DOP) (Homo sapiens, UniProt P41143); test: Radioligand binding, human δ-opioid (DOP) membranes, FlashPlate, [3H]-Bremazocine; conditions: compound at 10 μM, [3H]-Bremazocine
# T7 construct: purchased Perkin Elmer Biosignal
# T7 sequence (P41143 whole entry): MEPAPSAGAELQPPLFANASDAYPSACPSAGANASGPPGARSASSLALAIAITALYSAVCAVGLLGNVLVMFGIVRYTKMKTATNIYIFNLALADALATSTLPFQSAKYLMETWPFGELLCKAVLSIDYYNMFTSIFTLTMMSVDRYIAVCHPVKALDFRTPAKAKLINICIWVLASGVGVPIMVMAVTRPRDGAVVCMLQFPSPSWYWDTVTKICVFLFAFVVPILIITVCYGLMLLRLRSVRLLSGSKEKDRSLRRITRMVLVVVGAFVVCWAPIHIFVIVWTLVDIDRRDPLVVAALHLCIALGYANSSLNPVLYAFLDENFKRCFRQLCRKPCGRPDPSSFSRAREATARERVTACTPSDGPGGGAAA
# How it was run: as §1
# [8] = biological target: T8, Human melanin-concentrating hormone (MCH1) (Homo sapiens, UniProt Q99705); test: Radioligand binding, human melanin-concentrating hormone MCH1 membranes, FlashPlate, [125I]-S36057; conditions: compound at 10 μM; for A6: inhibition of radioligand binding, human melanin-concentrating hormone (MCH1): [125I]-S36057
# T8 construct: purchased Perkin Elmer Biosignal
# T8 sequence (Q99705 whole entry): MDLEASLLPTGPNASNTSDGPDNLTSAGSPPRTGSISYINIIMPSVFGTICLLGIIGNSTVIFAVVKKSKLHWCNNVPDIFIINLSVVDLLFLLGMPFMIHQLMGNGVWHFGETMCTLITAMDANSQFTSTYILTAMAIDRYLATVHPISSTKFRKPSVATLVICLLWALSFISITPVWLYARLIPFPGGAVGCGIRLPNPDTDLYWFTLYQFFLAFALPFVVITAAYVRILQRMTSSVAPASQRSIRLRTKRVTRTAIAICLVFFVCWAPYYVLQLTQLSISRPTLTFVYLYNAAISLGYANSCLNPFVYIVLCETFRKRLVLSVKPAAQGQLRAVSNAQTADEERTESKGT
# How it was run: as §1
# [9] = biological target: T9, Human κ-Opioid (KOP) (Homo sapiens, UniProt P41145); test: Radioligand binding, human κ-opioid (KOP) membranes, filtration, [3H]-Diprenorphine; conditions: compound at 10 μM, [3H]-Diprenorphine
# T9 construct: purchased Perkin Elmer Biosignal
# T9 sequence (P41145 whole entry): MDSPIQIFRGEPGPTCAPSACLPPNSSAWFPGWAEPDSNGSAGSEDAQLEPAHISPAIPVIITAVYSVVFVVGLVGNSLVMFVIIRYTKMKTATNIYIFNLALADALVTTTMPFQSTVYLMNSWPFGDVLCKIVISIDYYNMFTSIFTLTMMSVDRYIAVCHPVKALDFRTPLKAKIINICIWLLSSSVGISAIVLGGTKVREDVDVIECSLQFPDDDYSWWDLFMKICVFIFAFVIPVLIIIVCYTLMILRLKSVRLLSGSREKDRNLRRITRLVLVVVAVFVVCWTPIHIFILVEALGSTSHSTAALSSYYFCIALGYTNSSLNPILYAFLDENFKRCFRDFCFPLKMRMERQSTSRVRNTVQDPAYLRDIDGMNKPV
# How it was run: (§2)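 Percent inhibition of radioligand binding measured on recombinant human membranes: NK1 with [125I]-Substance P, KOP with [3H]-Diprenorphine. Incubation 1 h at room temperature, then harvest onto 0.3% PEI-soaked filters, cold Tris-HCl pH 7.4 washes and scintillation counting; non-specific binding from reference ligand wells.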
# [10] = biological target: T10, Human opioid (ORL1) (Homo sapiens, UniProt P41146); test: Radioligand binding, human opioid ORL1 membranes, FlashPlate, [125I]-Nociceptin; conditions: compound at 10 μM, [125I]-Nociceptin
# T10 construct: purchased Perkin Elmer Biosignal
# T10 sequence (P41146 whole entry): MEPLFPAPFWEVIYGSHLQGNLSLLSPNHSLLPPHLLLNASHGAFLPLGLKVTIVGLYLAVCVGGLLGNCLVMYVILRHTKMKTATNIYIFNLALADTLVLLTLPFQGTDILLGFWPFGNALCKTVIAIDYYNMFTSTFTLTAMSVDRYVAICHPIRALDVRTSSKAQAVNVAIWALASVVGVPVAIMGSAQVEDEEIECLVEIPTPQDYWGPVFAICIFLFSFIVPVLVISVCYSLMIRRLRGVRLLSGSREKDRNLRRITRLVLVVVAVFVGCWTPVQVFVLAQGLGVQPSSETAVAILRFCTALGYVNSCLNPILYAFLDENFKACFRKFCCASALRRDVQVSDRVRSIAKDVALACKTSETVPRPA
# How it was run: as §1
# [11] = biological target: T11, Human neurokinin (NK1) (Homo sapiens, UniProt P25103); test: Radioligand binding, human neurokinin NK1 membranes, filtration, [125I]-Substance P; conditions: compound at 10 μM, [125I]-Substance P
# T11 construct: purchased Perkin Elmer Biosignal
# T11 sequence (P25103 whole entry): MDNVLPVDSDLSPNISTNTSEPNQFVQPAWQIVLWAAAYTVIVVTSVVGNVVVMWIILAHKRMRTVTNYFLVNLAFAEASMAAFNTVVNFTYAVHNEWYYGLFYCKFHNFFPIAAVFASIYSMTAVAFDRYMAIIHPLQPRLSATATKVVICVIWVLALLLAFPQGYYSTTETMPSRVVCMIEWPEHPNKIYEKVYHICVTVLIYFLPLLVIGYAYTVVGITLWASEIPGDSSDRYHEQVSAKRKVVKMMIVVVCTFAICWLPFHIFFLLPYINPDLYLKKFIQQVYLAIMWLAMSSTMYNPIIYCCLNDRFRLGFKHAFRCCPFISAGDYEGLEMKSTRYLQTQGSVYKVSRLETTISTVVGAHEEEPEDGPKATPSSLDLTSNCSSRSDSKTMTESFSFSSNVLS
# How it was run: as §2
# T1 sequence (P35372 whole entry): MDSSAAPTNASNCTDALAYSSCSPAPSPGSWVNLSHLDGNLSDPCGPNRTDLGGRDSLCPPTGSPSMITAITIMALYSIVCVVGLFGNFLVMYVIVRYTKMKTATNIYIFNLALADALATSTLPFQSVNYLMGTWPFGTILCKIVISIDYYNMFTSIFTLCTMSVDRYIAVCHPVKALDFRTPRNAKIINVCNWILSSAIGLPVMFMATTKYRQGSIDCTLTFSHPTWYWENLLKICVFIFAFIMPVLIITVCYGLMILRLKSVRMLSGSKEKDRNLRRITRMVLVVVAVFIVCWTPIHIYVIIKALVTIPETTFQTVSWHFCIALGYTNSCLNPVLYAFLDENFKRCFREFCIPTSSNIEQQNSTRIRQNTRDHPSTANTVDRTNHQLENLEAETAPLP
smiles,measurement,setting,value
COCC1OC(OCCc2ccccc2)C(NC(=O)CCN)C(OCc2ccccc2)C1O (centres unmarked) [compound 216],A7: inhibition of radioligand binding,[1]; FlashPlate,− (“−” indicates less than 50% inhibition at 10 μM)
same,A4: inhibition of radioligand binding,[2]; FlashPlate,− (“−” indicates less than 50% inhibition at 10 μM)
same,A11: inhibition of radioligand binding,[3]; FlashPlate,− (“−” indicates less than 50% inhibition at 10 μM)
same,A9: inhibition of radioligand binding,[4]; FlashPlate,− (“−” indicates less than 50% inhibition at 10 μM)
same,A3: inhibition of radioligand binding,[5]; FlashPlate,− (“−” indicates less than 50% inhibition at 10 μM)
same,A5: inhibition of radioligand binding,[6]; FlashPlate,− (“−” indicates less than 50% inhibition at 10 μM)
same,A1: inhibition of radioligand binding,[7]; FlashPlate,− (“−” indicates less than 50% inhibition at 10 μM)
same,A6: inhibition of radioligand binding,"[8]; [125I]-S36057, FlashPlate",− (“−” indicates less than 50% inhibition at 10 μM)
same,A2: inhibition of radioligand binding,[9]; filtration,− (“−” indicates less than 50% inhibition at 10 μM)
same,A10: inhibition of radioligand binding,[10]; FlashPlate,− (“−” indicates less than 50% inhibition at 10 μM)
same,A8: inhibition of radioligand binding,[11]; filtration,+ (“+” indicates greater than 50% inhibition at 10 μM)
COC[C@H]1OC(OCc2ccc3ccccc3c2)[C@H](NC(=O)CCCN)[C@@H](OCc2ccc(Cl)cc2)[C@@H]1O (some centres unmarked) [compound 340],"A7: inhibition of radioligand binding, human μ-opioid (MOP)",[1],− (“−” indicates less than 50% inhibition at 10 μM)
same,"A4: inhibition of radioligand binding, human melanocortin (MC4)",[2],− (“−” indicates less than 50% inhibition at 10 μM)
same,"A11: inhibition of radioligand binding, mouse urotensin (mUR2)",[3],− (“−” indicates less than 50% inhibition at 10 μM)
same,"A9: inhibition of radioligand binding, human neuropeptide Y (NPY-Y1)",[4],− (“−” indicates less than 50% inhibition at 10 μM)
same,"A3: inhibition of radioligand binding, human melanocortin (MC3)",[5],− (“−” indicates less than 50% inhibition at 10 μM)
same,"A5: inhibition of radioligand binding, human melanocortin (MC5)",[6],− (“−” indicates less than 50% inhibition at 10 μM)
same,"A1: inhibition of radioligand binding, human δ-opioid (DOP)",[7],− (“−” indicates less than 50% inhibition at 10 μM)
same,"A6: inhibition of radioligand binding, human melanin-concentrating hormone (MCH1)",[8],− (“−” indicates less than 50% inhibition at 10 μM)
same,"A2: inhibition of radioligand binding, human κ-opioid (KOP)",[9],− (“−” indicates less than 50% inhibition at 10 μM)
same,"A10: inhibition of radioligand binding, human opioid (ORL1)",[10],− (“−” indicates less than 50% inhibition at 10 μM)
same,"A8: inhibition of radioligand binding, human neurokinin (NK1)",[11],+ (“+” indicates greater than 50% inhibition at 10 μM)
"NCCCC(=O)NC1C(OCc2ccc(Cl)cc2)OC(COCc2ccc(Cl)cc2)C(O)C1OCc1ccccc1 (single isomer, unassigned) [compound 505]","A7: inhibition of radioligand binding, human μ-opioid (MOP)",[1]; 10 µM,+ (“+” indicates greater than 50% inhibition at 10 μM)
same,"A4: inhibition of radioligand binding, human melanocortin (MC4)",[2],− (“−” indicates less than 50% inhibition at 10 μM)
same,"A11: inhibition of radioligand binding, mouse urotensin (mUR2)",[3],− (“−” indicates less than 50% inhibition at 10 μM)
same,"A9: inhibition of radioligand binding, human neuropeptide Y (NPY-Y1)",[4],− (“−” indicates less than 50% inhibition at 10 μM)
same,"A3: inhibition of radioligand binding, human melanocortin (MC3)",[5],− (“−” indicates less than 50% inhibition at 10 μM)
same,"A5: inhibition of radioligand binding, human melanocortin (MC5)",[6],+ (“+” indicates greater than 50% inhibition at 10 μM)
same,"A1: inhibition of radioligand binding, human δ-opioid (DOP)",[7],− (“−” indicates less than 50% inhibition at 10 μM)
same,"A6: inhibition of radioligand binding, human melanin-concentrating hormone (MCH1)",[8],− (“−” indicates less than 50% inhibition at 10 μM)
same,"A2: inhibition of radioligand binding, human κ-opioid (KOP)",[9],− (“−” indicates less than 50% inhibition at 10 μM)
same,"A10: inhibition of radioligand binding, human opioid (ORL1)",[10]; 10 µM,− (“−” indicates less than 50% inhibition at 10 μM)
same,"A8: inhibition of radioligand binding, human neurokinin (NK1)",[11],+ (“+” indicates greater than 50% inhibition at 10 μM)
"NCCCC(=O)NC1C(OCc2ccc3ccccc3c2)OC(COCc2ccc3ccccc3c2)C(O)C1OCc1ccccc1 (single isomer, unassigned) [compound 466]",A7: inhibition of radioligand binding,[1]; human MOP membranes,− (“−” indicates less than 50% inhibition at 10 μM)
same,A4: inhibition of radioligand binding,"[2]; human MC4 membranes, 10 µM",+ (“+” indicates greater than 50% inhibition at 10 μM)
same,A11: inhibition of radioligand binding,[3]; mouse mUR2 membranes,− (“−” indicates less than 50% inhibition at 10 μM)
same,A9: inhibition of radioligand binding,[4]; human NPY-Y1 membranes,− (“−” indicates less than 50% inhibition at 10 μM)
same,A3: inhibition of radioligand binding,"[5]; human MC3 membranes, 10 µM",− (“−” indicates less than 50% inhibition at 10 μM)
same,A5: inhibition of radioligand binding,[6]; human MC5 membranes,+ (“+” indicates greater than 50% inhibition at 10 μM)
same,A1: inhibition of radioligand binding,[7]; human DOP membranes,− (“−” indicates less than 50% inhibition at 10 μM)
same,A6: inhibition of radioligand binding,"[8]; [125I]-S36057, human MCH1 membranes, 10 µM",+ (“+” indicates greater than 50% inhibition at 10 μM)
same,A2: inhibition of radioligand binding,[9]; human KOP membranes,− (“−” indicates less than 50% inhibition at 10 μM)
same,A10: inhibition of radioligand binding,"[10]; human ORL1 membranes, 10 µM",+ (“+” indicates greater than 50% inhibition at 10 μM)
same,A8: inhibition of radioligand binding,[11]; human NK1 membranes,+ (“+” indicates greater than 50% inhibition at 10 μM)

# From patent US20080009418A1, “Selective Inhibitors” (Alchemia LTD., priority 2004, published 2008)
